Tested on: strains of Enterobacteriaceae producing various carbapenemases (class A, D and B; 104 strains)
Assay: Antibiotics potentiation by Compound 27 (MIC; meropenem, doripenem, ertapenem, cefepime)
Type: cell-based
Settings: + 27 = with Compound 27 at fixed 4 μg/ml

Measured: MIC

C[C@@H](O)[C@H]1C(=O)N2C(C(=O)O)=C(S[C@@H]3CN[C@H](C(=O)Nc4cccc(C(=O)O)c4)C3)[C@H](C)[C@H]12 [E]
X (MIC of less than 1 μg/mL): strain EC1007 Escherichia coli (KPC-3)
Z (MIC of greater than 10 μg/mL): strain CF1012 Citrobacter freundii (KPC-2) | strain CF1023 Citrobacter freundii (SHV-12(2be), TEM-OSBL(2b); CTX-M-3; CMY-34; NDM-1) | strain EA1019 Enterobacter aerogenes (SHV-5, VIM-1) | strain EC1061 Escherichia coli (NDM-1, CMY-6) | strain EC1064 Escherichia coli (NDM-1, CMY-6, CTX-M-15) | strain EC1068 Escherichia coli (VIM-1) | strain EC1069 Escherichia coli (CTX-M-27; NDM-1) | strain EC1070 Escherichia coli (TEM-OSBL(2b); CMY-42; NDM-5) | strain EC1072 Escherichia coli (CTX-M-3; NDM-1) | strain ECL1004 Enterobacter cloacae (NMC-A) | strain ECL1026 Enterobacter cloacae (KPC-2, TEM-1) | strain ECL1045 Enterobacter cloacae (VIM-1) | strain ECL1055 Enterobacter cloacae (KPC-3, TEM) | strain ECL1057 Enterobacter cloacae (NDM-1, TEM-1, CTX-M-15) | strain ECL1058 Enterobacter cloacae (KPC-3, SHV-11, TEM-1) | strain ECL1061 Enterobacter cloacae (KPC-3, Hyper AmpC expression) | strain ECL1084 Enterobacter cloacae (CTX-M-15; ACT-16; NDM-1) | strain ECL1085 Enterobacter cloacae (SHV-31(2be), TEM-1(2b); CTX-M-15; NDM-1) | strain ECL1086 Enterobacter cloacae (VIM-31, OXA-48(c)) | strain ECL1087 Enterobacter cloacae (VIM-1) | strain ECL1088 Enterobacter cloacae (TEM-1(2b); CTX-M-14; ACT-type; VIM-1) | strain ECL1089 Enterobacter cloacae (ACT-type; IMP-1) | strain ECL1094 Enterobacter cloacae (VIM-1) | strain ECL1096 Enterobacter cloacae (CMY-4, VIM-4, OXA-48(c)) | strain ECL1097 Enterobacter cloacae (SHV-31(2be), TEM-OSBL(2b); CTX-M-15; ACT-31; NDM-1) | strain ECL1098 Enterobacter cloacae (TEM-OSBL(2b); DHA-1; ACT-16; NDM-1) | strain KP1001 Klebsiella pneumoniae (KPC TEM SHV) | strain KP1003 Klebsiella pneumoniae (KPC TEM SHV) | strain KP1004 Klebsiella pneumoniae (KPC-2, TEM-1, SHV-11) | strain KP1059 Klebsiella pneumoniae (VIM-1, SHV-11) | strain KP1061 Klebsiella pneumoniae (KPC-3, SHV-11, TEM-1) | strain KP1064 Klebsiella pneumoniae (KPC-2, SHV-11, TEM-1) | strain KP1070 Klebsiella pneumoniae (KPC-2, SHV-11, TEM-1) | strain KP1074 Klebsiella pneumoniae (KPC-3, SHV-11, TEM) | strain KP1081 Klebsiella pneumoniae (NDM-1, TEM-1, SHV-11, CMY-6, CTX-M-15) | strain KP1082 Klebsiella pneumoniae (KPC-2, SHV-1) | strain KP1083 Klebsiella pneumoniae (KPC-3, SHV-1, TEM-1) | strain KP1084 Klebsiella pneumoniae (KPC-3, SHV-11, TEM-1) | strain KP1086 Klebsiella pneumoniae (OXA-48, CTX-M-15, TEM, SHV) | strain KP1087 Klebsiella pneumoniae (KPC-2, CTX-M-15, SHV-11, TEM-1) | strain KP1088 Klebsiella pneumoniae (KPC-3, SHV-11, TEM-1) | strain KP1089 Klebsiella pneumonias (OXA-181, CTX-M-15, TEM, SHV) | strain KP1096 Klebsiella pneumoniae (KPC-2 TEM-181 SHV-11) | strain KP1097 Klebsiella pneumonias (IMP-1) | strain KP1098 Klebsiella pneumoniae (IMP-26) | strain KP1104 Klebsiella pneumoniae (KPC TEM) | strain KP1105 Klebsiella pneumoniae (KPC TEM SHV) | strain KP1159 Klebsiella pneumoniae (SHV-1(2b); CTX-M-15; IMP-4) | strain KP1160 Klebsiella pneumoniae (SHV-28(2be); CTX-M-15; IMP-26) | strain KP1161 Klebsiella pneumoniae (NDM-1) | strain KP1164 Klebsiella pneumoniae (SHV-12(2be); VIM-1) | strain KP1165 Klebsiella pneumoniae (SHV-11(2b); CTX-M-15; VIM-27) | strain KP1166 Klebsiella pneumoniae (SHV-5(2be); VIM-26) | strain KP1170 Klebsiella pneumoniae (SHV-11(2b); CTX-M-15; NDM-1) | strain KP1174 Klebsiella pneumoniae (CTX-M-14; IMP-1) | strain KP1175 Klebsiella pneumoniae (SHV-OSBL(2b); VIM-1) | strain KP1177 Klebsiella pneumoniae (SHV-OSBL(2b), TEM-OSBL(2b); CTX-M-15; NDM-1) | strain KP1178 Klebsiella pneumoniae (SHV-OSBL(2b;) TEM-OSBL(2b); CTX-M-15; NDM-1) | strain KP1179 Klebsiella pneumoniae (SHV-12(2be), TEM-OSBL(2b); CTX-M-15; NDM-7) | strain KP1183 Klebsiella pneumoniae (SHV-OSBL(2b), TEM-OSBL(2b); CTX-M-15; NDM-1) | strain KP1185 Klebsiella pneumoniae (SHV-OSBL(2b), TEM-OSBL(2b); IMP-4) | strain KP1186 Klebsiella pneumoniae (CTX-M-15; NDM-1) | strain KP1187 Klebsiella pneumoniae (SHV-55(2be), TEM-OSBL(2b); CTX-M-15; NDM-1) | strain KP1188 Klebsiella pneumoniae (SHV-OSBL(2b); CTX-M-15; NDM-1) | strain KP1189 Klebsiella pneumoniae (TEM-OSBL(2b); CTX-M-15; CTX-M-27; NDM-1) | strain KPM1123 Klebsiella pneumoniae (KPC-2 TEM SHV) | strain KPM1202 Klebsiella pneumoniae (KPC SHV TEM) | strain KPM1347 Klebsiella pneumoniae (NDM-1 SHV CTX-M-15) | strain KX1017 Klebsiella oxytoca (KPC-2, OXA-2, SHV-30) | strain KX1019 Klebsiella oxytoca (KPC-2, OXA-2) | strain PM1027 Proteus mirabilis (VIM-5) | strain SM1023 Serratia marcescens (VIM-4)
Y (MIC of 1 μg/mL to 10 μg/mL): strain CF1021 Citrobacter freundii (CMY-type; VIM-1) | strain CF1022 Citrobacter freundii (SHV-12(2be), TEM-OSBL(2b); IMP-8) | strain CL1080 Enterobacter cloacae (IMP-1) | strain EC1062 Escherichia coli (OXA-48, CTX-M-15) | strain EC1065 Escherichia coli (IMP-1) | strain ECL1036 Enterobacter cloacae (KPC-3, TEM-1) | strain ECL1059 Enterobacter cloacae (KPC-3, SHV-12, TEM-1) | strain ECL1082 Enterobacter cloacae (VIM-1) | strain ECL1090 Enterobacter cloacae (TEM-1(2b); CTX-M-22; ACT-type; IMP-8) | strain ECL1091 Enterobacter cloacae (VIM-1) | strain ECL1092 Enterobacter cloacae (TEM-OSBL(2b); ACT-32; VIM-1) | strain ECL1093 Enterobacter cloacae (TEM-OSBL(2b); ACT-32; VIM-1) | strain KP1002 Klebsiella pneumoniae (KPC TEM SHV) | strain KP1008 Klebsiella pneumoniae (KPC-2) | strain KP1014 Klebsiella pneumoniae (VIM-1, TEM, SHV) | strain KP1054 Klebsiella pneumoniae (VIM-1, SHV-11) | strain KP1065 Klebsiella pneumoniae (VIM-1, SHV-11) | strain KP1095 Klebsiella pneumoniae (KPC-2 TEM-1 SHV-1) | strain KP1167 Klebsiella pneumoniae (SHV-12(2be); VIM-1) | strain KP1169 Klebsiella pneumoniae (SHV-11(2b); VIM-1) | strain KP1172 Klebsiella pneumoniae (SHV-31(2be); DHA-1; VIM-1) | strain KP1173 Klebsiella pneumoniae (TEM-33(2br); CTX-M-15; IMP-1) | strain KP1180 Klebsiella pneumoniae (SHV-OSBL(2b), TEM-OSBL(2b); CTX-M-15; DHA-1; IMP-26) | strain KP1181 Klebsiella pneumoniae (SHV-OSBL(2b); CTX-M-15; IMP-26) | strain KP1184 Klebsiella pneumoniae (SHV-OSBL(2b); IMP-1) | strain KPM1203 Klebsiella pneumoniae (KPC SHV TEM) | strain KPM1344 Klebsiella pneumoniae (VIM-1) | strain KPM1345 Klebsiella pneumoniae (VIM-1 SHV) | strain KX1018 Klebsiella oxytoca (KPC-2, SHV-40, OXY-1) | strain PM1024 Proteus mirabilis (TEM-1(2b); CMY-16; VIM-1) | strain PM1026 Proteus mirabilis (DHA-1; IMP-26)
